PMC12245127, “Cancer Specific CAIX‐Targeting Supramolecular Lysosome‐Targeting Chimeras (Supra‐LYTAC) for Targeted Protein Degradation” (Advanced Science, 2025)

What was measured:
Type in all cases: cell-based
HeLa = test: Endocytosis pathway analysis with inhibitors; conditions: inhibitor pre-incubated 30 min (400 mM sucrose, 30 μM EIPA), then 100 μM Py-FFK-Az, 5 μM Py-FFK-Biotin, 400 nM streptavidin-FITC 3 h, flow cytometry, n = 3
Description: We next examined the cellular localization of Supra‐LYTAC using CLSM. […] To understand the lysosomal trafficking mechanism, we conducted inhibitor studies. […]
fluorometer (F-7000, Hitachi). The ratio for I1 band and I3 band was plotted to obtain CAC […]
S.1.12. Transmission electron microscopy study. To confirm the peptide self-assembly nanostructures, 50 μM of peptide solution in water was prepared. Then, 8 μL was dropped onto a copper grid. After the droplet is fully dried, it was repeated once more. After that, negative staining was achieved using 2 wt% uranyl acetate solution for 10 min in RT. After washing using DI water, the self-assembly morphology was visualized using JEM-1400 by JEOL and […]
To visualize peptide-protein nanocomplex, streptavidin stock solution was added into the solution consisting of 50 μM peptide solution (mixture of Py-FFK-Az and Py-FFK-Biotin in 20:1 ratio) to obtain 400 nM and 10 μM solutions. Then, TEM sample was prepared with the same protocol of peptide self-assembly visualization.
S.1.13. Circular dichroism spectroscopy. 100 μM peptide solution was initially prepared.
The solution was transferred into quartz cell with 1 mm path length (Hellma), and CD spectrum was recorded using CD spectrometer (J-815, JASCO) under the flow of nitrogen.
S.1.14. FT-IR spectroscopy. 1 mM peptide solution was prepared for FT-IR spectroscopy.
The solution was measured using L1600300 Spectrum TWO LiTa FT-IR spectrometer by […]
S.1.15. Cell culture. HeLa, 4T1, and NIH/3T3 were supplied from Korean Cell Line Bank. […]
After growing for 24 h, Py-FFK-Az, Py-FFK-Biotin, Py-GGK-Az, Py-GGK-Biotin was treated with different concentrations. […] After 4 h incubation, MTT formazan was solubilized by SDS solution, and monitored using SpectraMax M5e Multi Mode Microplate Reader by Molecular Devices.
S.1.17. […] After that, the cells were washed and analyzed using FACSverse (Becton Dickinson And Company).
S.1.18. […] After that, the cells were washed and analyzed using confocal laser scanning microscopy (LSM780 and 880 by ZEISS). […]

PD‐L1 [1] = target: T1, PD‐L1 (Homo sapiens, UniProt Q9NZQ7); test: Western blot analysis for PD-L1 degradation, HeLa; conditions: 24 h, 1:1 ratio (100 μM each)
T1 construct: endogenous in cells; host or cells: HeLa
Description: (§1) We next evaluated PD‐L1 degradation using Western blot (WB) analysis. […] Initially, we verified BMS‐conjugated peptides were non‐toxic by MTT assay (Figure S37, Supporting Information). We then assessed PD‐L1 degradation in HeLa cells after 24‐h treatment with 100 µM Py‐FFK‐Az and varying concentrations of Py‐FFK‐BMS. […] To further assess the effect for Py‐FFK‐Az, we conducted WB analysis with 100 µM Py‐FFK‐BMS at varying concentration for Py‐FFK‐Az. […] PD‐L1 degradation was inhibited by co‐treatment with CAIX inhibitor, confirming the role of CAIX‐mediated endocytosis in lysosomal uptake (Figure S39, Supporting Information). To further validate lysosome‐dependent protein degradation, we conducted WB analysis with chloroquine, a lysosomal inhibitor. […] Furthermore, PD‐L1 fluorescence was restored when chloroquine was co‐administered with the 1:1 Py‐FFK‐Az:Py‐FFK‐BMS mixture, confirming lysosomal involvement in PD‐L1 degradation. […]
(§2) μM Py-FFK-Az and 5μM Py-FFK-Biotin was co-incubated with 400 nM streptavidin-FITC. […]
(§3) as counterstaining agent. IF signals were analyzed using confocal laser scanning microscopy […]
(§4) S.1.22. […] Tumor growth was monitored using the digital caliper. We calculated the tumor volume using the formula [volume = (tumor length) × (tumor width)2/2]. […] The tumor size and body weight were measured and […]
(§5) S.1.23. […] All the data are expressed as mean ± standard deviation (SD). […]

PD‐L1 [2] = target: T1, PD‐L1; test: Immunofluorescence analysis of PD-L1, HeLa; conditions: 24 h
Description: as §1, §2, §3, §4, §5

T1 sequence (Q9NZQ7 19-290): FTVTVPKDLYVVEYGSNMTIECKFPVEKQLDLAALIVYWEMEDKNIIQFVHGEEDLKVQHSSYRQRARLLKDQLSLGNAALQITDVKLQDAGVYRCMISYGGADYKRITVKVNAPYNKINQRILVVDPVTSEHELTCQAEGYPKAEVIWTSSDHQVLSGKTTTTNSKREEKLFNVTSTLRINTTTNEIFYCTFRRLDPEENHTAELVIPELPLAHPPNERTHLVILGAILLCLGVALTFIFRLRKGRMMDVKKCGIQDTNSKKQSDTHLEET

Structure (SMILES) | effect of inhibitor on POI uptake by Supra-LYTAC (HeLa) | effect of inhibitor co-treatment on PD-L1 degradation by Py-FFK-Az and Py-FFK-BMS (WB) (PD‐L1 [1]) | PD-L1 immunofluorescence on chloroquine co-administration with 1:1 Py-FFK-Az:Py-FFK-BMS (PD‐L1 [2])
OC[C@H]1O[C@@](CO)(O[C@H]2O[C@H](CO)[C@@H](O)[C@H](O)[C@H]2O)[C@@H](O)[C@@H]1O [sucrose] | substantially reduced |  | 
CC(=O)Nc1nnc(S(N)(=O)=O)s1 [acetazolamide] | significantly reduced | inhibited | 
CCN(CC)CCCC(C)Nc1ccnc2cc(Cl)ccc12 (stereo not drawn) [chloroquine] |  | significantly reduced PD‐L1 degradation | restored
CCN(c1nc(N)c(C(=O)NC(=N)N)nc1Cl)C(C)C [EIPA] | no effect |  | 
